Literature values as cited in patent US8715625B1, “Natural oral care compositions” (The Clorox Company, priority 2010, dated 2014).

Tested on: plaque
Settings: two tests conducted by Purdue University's Dental Science Research Group

In the case of `C=C1C[C@@]23CC[C@H]4[C@@](C)(CCC[C@@]4(C)C(=O)O[C@@H]4O[C@H](CO)[C@@H](O)[C@H](O)[C@H]4O)[C@@H]2CC[C@]1(O[C@@H]1O[C@H](CO)[C@@H](O)[C@H](O)[C@H]1O[C@@H]1O[C@H](CO)[C@@H](O)[C@H](O)[C@H]1O)C3` [Stevioside], the development of plaque is listed as ““significantly” inhibits the development of plaque”.
